Measurements: ChEMBL document CHEMBL4804286, “3-amino-4-(4-(4 (dimethylcarbamoyl) phenyl)-1,4-diazepan-1-yl) thieno [2,3-b] pyridine-2-carboxamide for use in cancer therapy and formulations comprising the same” (2020)
Where “and” joins values, the source holds several entries; their conditions need not be identical. Equal entries are not always repeated. Calls of active or inactive are those of the source. No cut-off for these calls is given here.

Experiments:
[1] = molecular target: Tyrosine-protein kinase ABL1 (Homo sapiens) (UniProt P00519); assay: Inhibition of phosphorylated human ABL1 assessed as percent of control at 2000 nM by KINOMEscan assay relative to control; design: scale not given: the % may be the effect or the level left
[2] = molecular target: Aurora kinase C (Homo sapiens) (UniProt Q9UQB9); assay: Inhibition of human AURKC assessed as percent of control at 2000 nM by KINOMEscan assay relative to control; design: scale not given: the % may be the effect or the level left
[3] = molecular target: Calcium/calmodulin-dependent protein kinase type 1D (Homo sapiens) (UniProt Q8IU85); assay: Inhibition of human CAMK1D assessed as percent of control at 2000 nM by KINOMEscan assay relative to control; design: scale not given: the % may be the effect or the level left
[4] = molecular target: Calcium/calmodulin-dependent protein kinase type II subunit gamma (Homo sapiens) (UniProt Q13555); assay: Inhibition of human CAMK2G assessed as percent of control at 2000 nM by KINOMEscan assay relative to control; design: scale not given: the % may be the effect or the level left
[5] = molecular target: Cyclin-dependent kinase 3 (Homo sapiens) (UniProt Q00526); assay: Inhibition of human CDK3 assessed as percent of control at 2000 nM by KINOMEscan assay relative to control; design: scale not given: the % may be the effect or the level left
[6] = molecular target: Casein kinase II subunit alpha' (Homo sapiens) (UniProt P19784); assay: Inhibition of human CSNK2A2 assessed as percent of control at 2000 nM by KINOMEscan assay relative to control; design: scale not given: the % may be the effect or the level left
[7] = molecular target: Mitogen-activated protein kinase kinase kinase 12 (Homo sapiens) (UniProt Q12852); assay: Inhibition of human DLK assessed as percent of control at 2000 nM by KINOMEscan assay relative to control; design: scale not given: the % may be the effect or the level left
[8] = molecular target: Mitogen-activated protein kinase 3 (Homo sapiens) (UniProt P27361); assay: Inhibition of human ERK1 assessed as percent of control at 2000 nM by KINOMEscan assay relative to control; design: scale not given: the % may be the effect or the level left
[9] = molecular target: Homeodomain-interacting protein kinase 3 (Homo sapiens) (UniProt Q9H422); assay: Inhibition of human HIPK3 assessed as percent of control at 2000 nM by KINOMEscan assay relative to control; design: scale not given: the % may be the effect or the level left
[10] = molecular target: Homeodomain-interacting protein kinase 4 (Homo sapiens) (UniProt Q8NE63); assay: Inhibition of human HIPK4 assessed as percent of control at 2000 nM by KINOMEscan assay relative to control; design: scale not given: the % may be the effect or the level left
[11] = molecular target: Mast/stem cell growth factor receptor Kit (Homo sapiens) (UniProt P10721); assay: Inhibition of human autoinhibited KIT assessed as percent of control at 2000 nM by KINOMEscan assay relative to control; design: scale not given: the % may be the effect or the level left
[12] = molecular target: Leukocyte tyrosine kinase receptor (Homo sapiens) (UniProt P29376); assay: Inhibition of human LTK assessed as percent of control at 2000 nM by KINOMEscan assay relative to control; design: scale not given: the % may be the effect or the level left
[13] = molecular target: Mitogen-activated protein kinase kinase kinase 13 (Homo sapiens) (UniProt O43283); assay: Inhibition of human LZK assessed as percent of control at 2000 nM by KINOMEscan assay relative to control; design: scale not given: the % may be the effect or the level left
[14] = molecular target: Serine/threonine-protein kinase MAK (Homo sapiens) (UniProt P20794); assay: Inhibition of human MAK assessed as percent of control at 2000 nM by KINOMEscan assay relative to control; design: scale not given: the % may be the effect or the level left
[15] = molecular target: Mitogen-activated protein kinase kinase kinase 10 (Homo sapiens) (UniProt Q02779); assay: Inhibition of human MLK2 assessed as percent of control at 2000 nM by KINOMEscan assay relative to control; design: scale not given: the % may be the effect or the level left
[16] = molecular target: Serine/threonine-protein kinase 3 (Homo sapiens) (UniProt Q13188); assay: Inhibition of human MST2 assessed as percent of control at 2000 nM by KINOMEscan assay relative to control; design: scale not given: the % may be the effect or the level left
[17] = molecular target: Mitogen-activated protein kinase 14 (Homo sapiens) (UniProt Q16539); assay: Inhibition of human p38-alpha assessed as percent of control at 2000 nM by KINOMEscan assay relative to control; design: scale not given: the % may be the effect or the level left
[18] = test system: Phosphatidylinositol 4,5-bisphosphate 3-kinase catalytic subunit alpha isoform (Homo sapiens), P42336 [H1047Y]; assay: Inhibition of human PIK3CA H1047Y mutant assessed as percent of control at 2000 nM by KINOMEscan assay relative to control; design: scale not given: the % may be the effect or the level left
[19] = molecular target: Serine/threonine-protein kinase pim-2 (Homo sapiens) (UniProt Q9P1W9); assay: Inhibition of human PIM2 assessed as percent of control at 2000 nM by KINOMEscan assay relative to control; design: scale not given: the % may be the effect or the level left
[20] = molecular target: Membrane-associated tyrosine- and threonine-specific cdc2-inhibitory kinase (Homo sapiens) (UniProt Q99640); assay: Inhibition of human PKMYT1 assessed as percent of control at 2000 nM by KINOMEscan assay relative to control; design: scale not given: the % may be the effect or the level left
[21] = test system: Proto-oncogene tyrosine-protein kinase receptor Ret (Homo sapiens), P07949 [M918T]; assay: Inhibition of human RET M918T mutant assessed as percent of control at 2000 nM by KINOMEscan assay relative to control; design: scale not given: the % may be the effect or the level left
[22] = molecular target: Serine/threonine-protein kinase RIO3 (Homo sapiens) (UniProt O14730); assay: Inhibition of human RIOK3 assessed as percent of control at 2000 nM by KINOMEscan assay relative to control; design: scale not given: the % may be the effect or the level left
[23] = molecular target: Receptor-interacting serine/threonine-protein kinase 4 (Homo sapiens) (UniProt P57078); assay: Inhibition of human RIPK4 assessed as percent of control at 2000 nM by KINOMEscan assay relative to control; design: scale not given: the % may be the effect or the level left
[24] = molecular target: Ribosomal protein S6 kinase alpha-2 (Homo sapiens) (UniProt Q15349); assay: Inhibition of human C-terminal RSK3 kinase domain 2 assessed as percent of control at 2000 nM by KINOMEscan assay relative to control; design: scale not given: the % may be the effect or the level left
[25] = molecular target: SNF-related serine/threonine-protein kinase (Homo sapiens) (UniProt Q9NRH2); assay: Inhibition of human SNRK assessed as percent of control at 2000 nM by KINOMEscan assay relative to control; design: scale not given: the % may be the effect or the level left
[26] = molecular target: Serine/threonine-protein kinase 35 (Homo sapiens) (UniProt Q8TDR2); assay: Inhibition of human STK35 assessed as percent of control at 2000 nM by KINOMEscan assay relative to control; design: scale not given: the % may be the effect or the level left
[27] = molecular target: Dual specificity testis-specific protein kinase 1 (Homo sapiens) (UniProt Q15569); assay: Inhibition of human TESK1 assessed as percent of control at 2000 nM by KINOMEscan assay relative to control; design: scale not given: the % may be the effect or the level left
[28] = molecular target: Phosphatidylinositol 3-kinase catalytic subunit type 3 (Homo sapiens) (UniProt Q8NEB9); assay: Inhibition of human VPS34 assessed as percent of control at 2000 nM by KINOMEscan assay relative to control; design: scale not given: the % may be the effect or the level left
[29] = molecular target: Serine/threonine-protein kinase 32B (Homo sapiens) (UniProt Q9NY57); assay: Inhibition of human YANK2 assessed as percent of control at 2000 nM by KINOMEscan assay relative to control; design: scale not given: the % may be the effect or the level left
[30] = test system: Myc-CaP; assay: Antiproliferative activity against murine castration-resistant Myc-CaP cells at 1 uM assessed as growth inhibition relative to control; format: functional; settings: Mus musculus
[31] = molecular target: Cyclin-dependent kinase 19 (Homo sapiens) (UniProt Q9BWU1); settings: INHIBITOR, dose 2000.0 nM
Description: Inhibition of human CDK19 at 2000 nM by KINOMEscan assay

[32] = molecular target: Casein kinase I isoform delta (Homo sapiens) (UniProt P48730); settings: INHIBITOR, dose 2000.0 nM
Description: Inhibition of human CSNK1D at 2000 nM by KINOMEscan assay

Chain of Casein kinase II subunit alpha' (Homo sapiens) (P19784 whole entry, looked up): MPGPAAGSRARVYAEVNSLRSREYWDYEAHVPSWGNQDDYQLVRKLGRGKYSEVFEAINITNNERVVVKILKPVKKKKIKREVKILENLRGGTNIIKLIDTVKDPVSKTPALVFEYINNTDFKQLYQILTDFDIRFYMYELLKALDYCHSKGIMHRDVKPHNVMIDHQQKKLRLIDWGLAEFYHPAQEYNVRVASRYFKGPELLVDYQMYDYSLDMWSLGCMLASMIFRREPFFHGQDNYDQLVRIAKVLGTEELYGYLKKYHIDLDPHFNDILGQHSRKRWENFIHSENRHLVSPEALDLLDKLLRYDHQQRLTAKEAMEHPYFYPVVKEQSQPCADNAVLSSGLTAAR
Chain of Mast/stem cell growth factor receptor Kit (Homo sapiens) (P10721 whole entry): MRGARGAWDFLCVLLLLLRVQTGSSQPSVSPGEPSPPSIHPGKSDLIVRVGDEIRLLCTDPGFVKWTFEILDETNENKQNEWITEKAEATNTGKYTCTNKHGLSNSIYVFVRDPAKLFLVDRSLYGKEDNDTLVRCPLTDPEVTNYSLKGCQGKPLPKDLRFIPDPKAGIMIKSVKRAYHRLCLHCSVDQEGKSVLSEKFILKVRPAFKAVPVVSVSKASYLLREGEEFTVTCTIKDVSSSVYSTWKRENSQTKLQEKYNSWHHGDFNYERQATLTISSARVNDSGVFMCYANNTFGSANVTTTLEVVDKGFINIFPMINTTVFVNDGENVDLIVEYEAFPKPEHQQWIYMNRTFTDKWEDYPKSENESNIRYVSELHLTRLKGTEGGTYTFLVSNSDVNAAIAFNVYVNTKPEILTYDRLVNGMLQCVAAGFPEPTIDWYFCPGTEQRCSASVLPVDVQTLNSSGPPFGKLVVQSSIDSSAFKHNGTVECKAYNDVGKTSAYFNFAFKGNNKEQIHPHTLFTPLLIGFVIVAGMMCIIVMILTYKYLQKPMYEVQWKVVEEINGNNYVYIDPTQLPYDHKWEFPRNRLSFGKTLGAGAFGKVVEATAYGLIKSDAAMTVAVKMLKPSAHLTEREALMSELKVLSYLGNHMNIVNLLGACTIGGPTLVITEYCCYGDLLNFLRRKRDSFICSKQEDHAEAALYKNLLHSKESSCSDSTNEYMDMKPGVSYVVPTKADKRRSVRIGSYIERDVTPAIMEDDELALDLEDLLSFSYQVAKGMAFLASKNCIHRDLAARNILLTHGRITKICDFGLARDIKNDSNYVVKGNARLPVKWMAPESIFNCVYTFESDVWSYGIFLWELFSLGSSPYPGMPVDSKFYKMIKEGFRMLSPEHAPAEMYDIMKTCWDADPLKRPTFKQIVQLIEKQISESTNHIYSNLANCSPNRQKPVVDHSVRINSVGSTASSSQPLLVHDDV
Chain of Ribosomal protein S6 kinase alpha-2 (Homo sapiens) (Q15349 whole entry, the tested form may be a part): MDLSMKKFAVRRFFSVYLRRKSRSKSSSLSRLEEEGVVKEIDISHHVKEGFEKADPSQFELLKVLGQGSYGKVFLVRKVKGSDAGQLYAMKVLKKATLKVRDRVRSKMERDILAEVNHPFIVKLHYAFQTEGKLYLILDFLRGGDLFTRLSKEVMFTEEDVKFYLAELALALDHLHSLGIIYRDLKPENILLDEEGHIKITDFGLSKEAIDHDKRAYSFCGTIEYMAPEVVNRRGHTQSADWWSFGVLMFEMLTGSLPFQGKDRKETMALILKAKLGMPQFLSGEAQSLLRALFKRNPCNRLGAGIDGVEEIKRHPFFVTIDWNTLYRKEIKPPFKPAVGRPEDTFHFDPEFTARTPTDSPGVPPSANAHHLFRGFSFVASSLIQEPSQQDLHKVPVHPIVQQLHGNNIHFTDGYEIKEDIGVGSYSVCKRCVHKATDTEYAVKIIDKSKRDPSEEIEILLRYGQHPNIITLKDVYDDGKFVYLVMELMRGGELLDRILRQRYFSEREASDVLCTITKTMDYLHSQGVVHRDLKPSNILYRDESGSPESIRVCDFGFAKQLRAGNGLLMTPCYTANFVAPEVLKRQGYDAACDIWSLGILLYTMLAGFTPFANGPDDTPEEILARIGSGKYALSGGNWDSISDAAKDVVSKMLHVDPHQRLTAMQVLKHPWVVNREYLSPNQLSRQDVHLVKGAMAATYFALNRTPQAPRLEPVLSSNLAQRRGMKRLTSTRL
Chain of Cyclin-dependent kinase 3 (Homo sapiens) (Q00526 whole entry, looked up): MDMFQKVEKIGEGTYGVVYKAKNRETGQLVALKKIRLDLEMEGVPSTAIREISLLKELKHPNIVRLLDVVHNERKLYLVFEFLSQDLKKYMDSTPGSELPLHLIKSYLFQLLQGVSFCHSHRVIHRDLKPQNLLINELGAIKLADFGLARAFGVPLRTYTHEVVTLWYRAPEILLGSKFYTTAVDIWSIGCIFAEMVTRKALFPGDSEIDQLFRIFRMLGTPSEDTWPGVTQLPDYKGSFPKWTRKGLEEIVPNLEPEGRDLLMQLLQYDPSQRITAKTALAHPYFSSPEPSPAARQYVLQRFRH
Chain of Calcium/calmodulin-dependent protein kinase type II subunit gamma (Homo sapiens) (Q13555 whole entry): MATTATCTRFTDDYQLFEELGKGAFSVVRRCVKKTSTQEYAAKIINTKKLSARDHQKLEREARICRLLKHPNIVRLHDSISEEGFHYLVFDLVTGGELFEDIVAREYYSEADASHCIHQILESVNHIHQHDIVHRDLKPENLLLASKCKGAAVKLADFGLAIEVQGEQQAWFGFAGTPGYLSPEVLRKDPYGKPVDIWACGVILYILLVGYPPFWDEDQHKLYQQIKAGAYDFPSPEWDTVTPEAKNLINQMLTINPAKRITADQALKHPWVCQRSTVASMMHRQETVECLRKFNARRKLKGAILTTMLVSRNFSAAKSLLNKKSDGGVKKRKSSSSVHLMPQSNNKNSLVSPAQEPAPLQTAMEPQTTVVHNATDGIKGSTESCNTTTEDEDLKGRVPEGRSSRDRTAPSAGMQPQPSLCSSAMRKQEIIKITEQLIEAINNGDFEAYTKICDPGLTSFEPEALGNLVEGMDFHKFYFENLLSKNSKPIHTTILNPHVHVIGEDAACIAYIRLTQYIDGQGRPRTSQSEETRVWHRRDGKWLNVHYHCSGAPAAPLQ
Chain of Mitogen-activated protein kinase kinase kinase 10 (Homo sapiens) (Q02779 whole entry, looked up): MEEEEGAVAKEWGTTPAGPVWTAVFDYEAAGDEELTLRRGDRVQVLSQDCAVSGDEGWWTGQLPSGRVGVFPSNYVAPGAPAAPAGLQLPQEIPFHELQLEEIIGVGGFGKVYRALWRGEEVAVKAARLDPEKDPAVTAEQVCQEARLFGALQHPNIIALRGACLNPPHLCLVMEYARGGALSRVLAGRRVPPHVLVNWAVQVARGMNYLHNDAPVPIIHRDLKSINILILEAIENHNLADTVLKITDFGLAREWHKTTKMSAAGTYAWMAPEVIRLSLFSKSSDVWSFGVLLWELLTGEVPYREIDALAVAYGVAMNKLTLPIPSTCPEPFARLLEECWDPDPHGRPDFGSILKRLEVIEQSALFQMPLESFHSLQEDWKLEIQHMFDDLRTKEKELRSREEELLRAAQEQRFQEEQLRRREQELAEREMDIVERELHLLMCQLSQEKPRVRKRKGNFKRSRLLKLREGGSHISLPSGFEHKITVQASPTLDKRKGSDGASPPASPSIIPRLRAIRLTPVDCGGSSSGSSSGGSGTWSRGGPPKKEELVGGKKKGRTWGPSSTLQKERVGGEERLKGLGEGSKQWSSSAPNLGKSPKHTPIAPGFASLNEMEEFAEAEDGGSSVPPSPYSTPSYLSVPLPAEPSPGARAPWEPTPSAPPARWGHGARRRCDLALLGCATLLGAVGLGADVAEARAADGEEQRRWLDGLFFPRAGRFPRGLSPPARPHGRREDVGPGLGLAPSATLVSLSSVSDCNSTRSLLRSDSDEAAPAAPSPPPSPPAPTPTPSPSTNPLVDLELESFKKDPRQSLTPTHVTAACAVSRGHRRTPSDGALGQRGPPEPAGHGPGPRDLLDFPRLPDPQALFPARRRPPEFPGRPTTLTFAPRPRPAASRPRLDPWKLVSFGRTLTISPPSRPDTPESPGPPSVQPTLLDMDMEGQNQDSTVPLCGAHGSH
Chain of Mitogen-activated protein kinase 3 (Homo sapiens) (P27361 whole entry): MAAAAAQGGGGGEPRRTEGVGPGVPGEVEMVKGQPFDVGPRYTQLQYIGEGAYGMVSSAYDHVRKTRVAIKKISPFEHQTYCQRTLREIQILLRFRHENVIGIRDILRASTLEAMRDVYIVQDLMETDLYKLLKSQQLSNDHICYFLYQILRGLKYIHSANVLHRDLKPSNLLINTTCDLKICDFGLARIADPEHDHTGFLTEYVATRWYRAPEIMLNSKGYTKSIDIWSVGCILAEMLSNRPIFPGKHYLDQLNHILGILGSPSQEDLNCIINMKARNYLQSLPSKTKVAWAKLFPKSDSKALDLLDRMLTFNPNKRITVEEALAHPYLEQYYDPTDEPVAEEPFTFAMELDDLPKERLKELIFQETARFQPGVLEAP
Chain of Serine/threonine-protein kinase MAK (Homo sapiens) (P20794 whole entry): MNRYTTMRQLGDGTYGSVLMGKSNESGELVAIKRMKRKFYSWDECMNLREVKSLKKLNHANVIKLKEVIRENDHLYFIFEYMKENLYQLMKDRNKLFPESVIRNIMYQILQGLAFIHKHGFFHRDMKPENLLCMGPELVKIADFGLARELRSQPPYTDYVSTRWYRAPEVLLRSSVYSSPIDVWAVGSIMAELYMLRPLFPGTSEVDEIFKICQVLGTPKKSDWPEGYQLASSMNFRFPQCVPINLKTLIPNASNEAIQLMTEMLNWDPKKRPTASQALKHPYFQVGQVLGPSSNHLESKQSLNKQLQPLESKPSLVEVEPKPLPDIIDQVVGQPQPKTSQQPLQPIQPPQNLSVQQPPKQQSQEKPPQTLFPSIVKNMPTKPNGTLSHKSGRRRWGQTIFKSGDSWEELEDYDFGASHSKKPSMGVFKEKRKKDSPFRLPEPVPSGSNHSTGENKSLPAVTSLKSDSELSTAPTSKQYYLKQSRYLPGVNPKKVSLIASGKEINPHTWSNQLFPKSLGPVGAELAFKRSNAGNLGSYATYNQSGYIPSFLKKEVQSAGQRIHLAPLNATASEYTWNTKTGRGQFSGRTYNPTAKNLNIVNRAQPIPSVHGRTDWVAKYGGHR

CN(C)C(=O)c1ccc(N2CCCN(c3ccnc4sc(C(N)=O)c(N)c34)CC2)cc1
Activity [1]: 90% and 77% | Activity [2]: 100% | Activity [3]: 87% and 93% | Activity [4]: 100% | Activity [5]: 92% and 97% | Activity [6]: 92% and 100% | Activity [7]: 93% and 89% | Activity [8]: 100% and 97% | Activity [9]: 77% and 81% | Activity [10]: 100% | Activity [11]: 90% | Activity [12]: 90% and 77% | Activity [13]: 100% and 87% | Activity [14]: 100% and 91% | Activity [15]: 100% and 95% | Activity [16]: 100% and 84% | Activity [17]: 93% and 99% | Activity [18]: 79% and 100% | Activity [19]: 85% and 89% | Activity [20]: 91% and 94% | Activity [21]: 98% | Activity [22]: 100% and 95% | Activity [23]: 89% and 68% | Activity [24]: 100% and 89% | Activity [25]: 100% and 75% | Activity [26]: 87% and 93% | Activity [27]: 83% and 100% | Activity [28]: 85% and 65% | Activity [29]: 89% and 84% | Activity [30]: Active | inhibition [31]: > 65% | inhibition [32]: > 65%
